Source: the supplement of paper PMC10307832

Tests used:
Experiment in all cases: relative viability (nuclei count vs DMSO), 5 days (fraction); higher = more cells survive
[1] = compound: C1/C(=C\C2=CC=CS2)/C(=O)/C(=C/C3=CC=CS3)/C1 + CC1(C)CCC(c2ccc(Cl)cc2)=C(CN2CCN(c3ccc(C(=O)NS(=O)(=O)c4ccc(N[C@H](CCN5CCOCC5)CSc5ccccc5)c(S(=O)(=O)C(F)(F)F)c4)cc3)CC2)C1 [Navitoclax] (partner 0.5 µM)
Outline: (§1)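 The day after seeding in 1536-well plates, lung cancer cell lines were treated by pin tool with a single drug, or with a fixed anchor-drug dose together with five library-drug doses (not always all listed) in √10 steps. After 5 days, a combined fix-and-stain solution (final 0.05% Triton X-100, 1% formaldehyde, 1 ug/ml Hoechst) was added. Nuclei counted on 4× images gave relative viability as treated counts over vehicle counts, reported as the median of duplicate plates.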

[2] = compound: C1/C(=C\C2=CC=CS2)/C(=O)/C(=C/C3=CC=CS3)/C1 + CS(=O)(=O)CCNCc1ccc(-c2ccc3ncnc(Nc4ccc(OCc5cccc(F)c5)c(Cl)c4)c3c2)o1 [Lapatinib] (partner 2 µM)
Outline: as §1

TPCA-1 + Bortezomib = compound: C1=CC(=CC=C1C2=CC(=C(S2)NC(=O)N)C(=O)N)F [TPCA-1] + CC(C)C[C@H](NC(=O)[C@H](Cc1ccccc1)NC(=O)c1cnccn1)B(O)O [Bortezomib] (partner 0.002 µM)
Outline: as §1

TPCA-1 + Linsitinib = compound: C1=CC(=CC=C1C2=CC(=C(S2)NC(=O)N)C(=O)N)F [TPCA-1] + C[C@]1(O)C[C@@H](c2nc(-c3ccc4ccc(-c5ccccc5)nc4c3)c3c(N)nccn32)C1 [Linsitinib] (partner 1 µM)
Outline: as §1

Cell Line	relative viability ([1]; first compound 0.2 µM)	relative viability ([1]; first compound 0.6325 µM)	relative viability ([1]; first compound 2 µM)	relative viability ([1]; first compound 20 µM)	relative viability ([2]; first compound 0.2 µM)	relative viability ([2]; first compound 0.6325 µM)	relative viability ([2]; first compound 2 µM)	relative viability ([2]; first compound 20 µM)	relative viability (TPCA-1 + Bortezomib; first compound 0.04 µM)	relative viability (TPCA-1 + Bortezomib; first compound 0.1265 µM)	relative viability (TPCA-1 + Bortezomib; first compound 0.4 µM)	relative viability (TPCA-1 + Bortezomib; first compound 1.265 µM)	relative viability (TPCA-1 + Bortezomib; first compound 4 µM)	relative viability (TPCA-1 + Linsitinib; first compound 0.04 µM)	relative viability (TPCA-1 + Linsitinib; first compound 0.1265 µM)	relative viability (TPCA-1 + Linsitinib; first compound 0.4 µM)	relative viability (TPCA-1 + Linsitinib; first compound 1.265 µM)	relative viability (TPCA-1 + Linsitinib; first compound 4 µM)	relative viability ([1]; first compound 6.325 µM)	relative viability ([2]; first compound 6.325 µM)
NCI-H1792	0.666	0.579	0.743	0.624	0.819	0.915	1.04	0.899	0.97	0.924	0.84	0.964	0.559	0.574	0.467	0.561	0.47	0.283		
COR-L23	1.06	1.09	1.02	0.967	0.923	1.02	0.841	0.92	1.27	0.854	0.983	0.937	0.751	1.01	0.771	0.975	0.821	0.565	0.864	0.859
HOP-62	0.985	1.23	0.8	1.06	0.902	0.589	0.9	0.983	0.641	0.707	0.832	0.738	0.57	0.96	0.676	0.921	1.12	0.973	0.952	0.932
NCI-H1915	0.788	0.758	0.818	0.818	0.984	0.996	0.964	1.03	0.949	0.961	0.954	0.664	0.886	1.16	1.12	1.15	1.04	1.03	0.754	0.937
BEN	0.0742	0.059	0.368	0.0554	0.621	0.801	0.795	0.611	1.17	0.53	0.805	0.999	0.587	0.973	0.728	1	0.877	0.692	0.0733	0.488
NCI-H1437	1.15	1.09	1.07	0.992	0.751	0.788	0.791	0.692	0.586	0.496	0.577	0.367	0.504	1.17	0.936	1.02	0.926	0.754	1.03	0.748
EMC-BAC-2	1.21	1.11	1.13	1.1	0.931	0.873	0.952	0.843	1.12	1.07	1.11	1.08	0.932	0.848	0.739	0.822	0.837	0.66	1.05	0.866
NCI-H647	1.15	1.15	1.1	1.17	1.13	1.26	1.28	1	1.26	0.809	0.954	0.751	0.418	1.11	1.07	1.1	1.05	0.694	1.01	0.763
